{"source": "patent US7384639B2", "about": "“Methods of treating or preventing an infectious disease using an immunogenic conjugate of a gram-negative bacterial autoinducer molecule” (University of Rochester, priority 1998, dated 2008)", "key": {"[1]": {"system": "tumor necrosis factor and interleukin-12", "settings": "Telford et al., 1998; cited from earlier work"}, "[2]": {"system": "lasI/lasZ transcriptional fusion (lasR)", "settings": "λI14-MG4 (pPCS1), Seed et al., 1995, cited from earlier work"}, "lymphocytes": {"system": "lymphocytes", "settings": "in vivo (so in the source); Telford et al., 1998; cited from earlier work"}, "LasR": {"system": "LasR", "test": "microbe, parasite or virus in culture", "type": "cell-based", "settings": "Pseudomonas aeruginosa, read-out: concentration that stimulates half-maximal activity", "protocol": "Positive clones were tested in a Pseudomonas aeruginosa bioassay. PAC-JP2 (bearing the lasI/rhII double deletion) produces no PAI-1 but retains the ability to produce LasR. When PAI-1 is added exogenously, it can bind to LasR and induce the transcription of lasI. Test samples containing 40 nM PAI-1 (the concentration that stimulates half-maximal activity in this assay) were preincubated at 37° C. with anti-PAI-1 monoclonal antibody (618.4). Control samples containing 40 nm PAI-1 were preincubated at 37° C. with an equal volume of PBS. Following preincubation, the samples were tested in a Pseudomonas aeruginosa bioassay using PAO-JP2 containing a plasmid with a lasI/LacZ fusion. When the bacteria reached on OD600 of 0.8-1.0, the samples were assayed for the production of β-galactosidase, which was expressed as Miller Units of activity."}}, "data": [{"smiles": "CCCCCCCCCC(=O)CC(=O)NC1CCOC1=O", "note": "[PAI-1, N-(3-oxo)-dodecanoyl-L-homoserine lactone]", "values": [{"measurement": "effect on expression of tumor necrosis factor and interleukin-12", "setting": "[1]", "result": "downregulates expression"}, {"measurement": "lowest PAI-1 concentration that activates the construct", "setting": "[2]", "result": 10, "unit": "pM"}, {"measurement": "EC50", "setting": "[2]; read-out: PAI-1 concentration for half-maximal expression", "result": 0.1, "unit": "nM"}, {"measurement": "effect on proliferation of lymphocytes", "setting": "lymphocytes", "result": "inhibit the proliferation of lymphocytes"}, {"measurement": "EC50", "setting": "LasR", "result": 40, "unit": "nM"}]}]}
